This note sets out measurements from US9249152B2, “Cyano containing azabenzofuran compounds for the treatment of hepatitis C” (BRISTOL-MYERS SQUIBB COMPANY, priority 2014, dated 2016).

The assay relates to genotype 1b (Con-1) HCV replicon. The assay can be described thus: HCV replicon luciferase assay, genotype 1b (Con-1). The format is cell-based. As to conditions: genotype 1b HCV replicon, Huh-7 cells, Renilla luciferase, 3 days. How it is done: The cell lines used to evaluate compounds consist of a human hepatocyte derived cell line (Huh-7) that constitutively expresses a genotype 1b (Con-1) HCV replicon or a genotype 1b (Con-1) HCV replicon with an asparagine replacing the cysteine at amino acid 316, or a genotype 2a (JFH-1) replicon, containing a Renilla luciferase reporter gene. These cells were maintained in Dulbecco's modified Eagle medium (DMEM) containing 10% FBS, 100 U/mL penicillin/streptomycin and 1.0 mg/mL G418.
To evaluate compound efficacy, titrated compounds were transferred to sterile 384-well tissue culture treated plates, and the plates were seeded with HCV replicon cells (50 μL at a density of 2.4×10^3 cells/well) in DMEM containing 4% FBS (final DMSO concentration at 0.5%). After 3 days incubation at 37° C., cells were analyzed for Renilla Luciferase activity using the EnduRen substrate (Promega cat #E6485) according to the manufacturer's directions. Briefly, the EnduRen substrate was diluted in DMEM and then added to the plates to a final concentration of 7.5 μM. The plates were incubated for at least 1 h at 37° C. then read on a Viewlux Imager (PerkinElmer) using a luminescence program. The 50% effective concentration (EC50) was calculated using the four-parameter logistic formula noted above.

[1] abbreviates: Hepatitis C virus, Huh-7, 72 h, read-out: EC50 1b (class).
The mark [2] stands for this setting: Hepatitis C virus, Huh-7, 72 h, read-out: EC50 (uM) 1b.

Like-named read-outs stand apart in the source and are kept apart here. Some results are limits rather than exact numbers.

Turning to `CNC(=O)c1c(-c2ccc(F)cc2)oc2nc(Cl)c(-c3ccc(OC)c(C(=O)NC(C)(C)C#N)c3)cc12` [Compound 10001], the EC50 runs as follows: under setting [1], below 0.1 µM; under setting [2], 0.0738 µM.
As to `CNC(=O)c1c(-c2ccc(F)cc2)oc2nc(Cl)c(-c3ccc(OC)c(C(=O)NC4(C#N)CCC4)c3)cc12` [Compound 10002], the EC50 under setting [1] is below 0.1 µM.
The same measure, in the same setting: for `CNC(=O)c1c(-c2ccc(F)cc2)oc2nc(Cl)c(-c3ccc(OC)c(C(=O)NC4(C#N)CCCC4)c3)cc12` [Compound 10003] the value was below 0.1 µM.
Turning to `CNC(=O)c1c(-c2ccc(F)cc2)oc2nc(Cl)c(-c3cccc(C(=O)NC(C)(C)C#N)c3)cc12` [Compound 10004], the EC50 runs as follows: under setting [1], 0.1 to 1 µM; under setting [2], 0.105 µM.
For `CNC(=O)c1c(-c2ccc(F)cc2)oc2nc(Cl)c(-c3cccc(C(=O)NC4(C#N)CCC4)c3)cc12` [Compound 10005], the EC50 under setting [1] is below 0.1 µM.
In the case of `CNC(=O)c1c(-c2ccc(F)cc2)oc2nc(Cl)c(-c3cccc(C(=O)NC4(C#N)CCCC4)c3)cc12` [Compound 10006], the EC50 was below 0.1 µM under setting [1] and 0.076 µM under setting [2].
As for `CNC(=O)c1c(-c2ccc(F)cc2)oc2nc(CCC(F)(F)F)c(-c3cccc(C(=O)NC4(C#N)CCC4)c3)cc12` [Compound 11002], the EC50 under setting [1] is below 0.1 µM.
For the compound `CNC(=O)c1c(-c2ccc(F)cc2)oc2nc(CCC(F)(F)F)c(-c3cccc(C(=O)NC4(C#N)CCCC4)c3)cc12` [Compound 11003], the EC50 was below 0.1 µM under setting [1] and 0.0046 µM under setting [2].
For `CNC(=O)c1c(-c2ccc(F)cc2)oc2nc(CCC(F)(F)F)c(-c3cccc(C(=O)NC(C)(C#N)C(C)C)c3)cc12` (centres unmarked) [Compound 11004], the EC50 under setting [1] is below 0.1 µM.
The same measure, in the same setting: for `CNC(=O)c1c(-c2ccc(F)cc2)oc2nc(CCC(F)(F)F)c(-c3cccc(C(=O)NC(C)(C#N)C4CC4)c3)cc12` (centres unmarked) [Compound 11005] the value was below 0.1 µM.
As to `CNC(=O)c1c(-c2ccc(F)cc2)oc2nc(CCC(F)(F)F)c(-c3cccc(C(=O)NC(C)(C#N)C4CC4)c3)cc12` (centres unmarked) [Compound 11006], the EC50 was 0.0022 µM under setting [2] and below 0.1 µM (read-out: EC50 1b (class)).
Turning to `CNC(=O)c1c(-c2ccc(F)cc2)oc2nc(CCC(F)(F)F)c(-c3cccc(C(=O)NC(C)(C#N)C4CC4)c3)cc12` (centres unmarked) [Compound 11007], the EC50 (read-out: EC50 1b (class)) is below 0.1 µM and the EC50 (read-out: EC50 (uM) 1b) was found to be 0.0027 µM.
For `CNC(=O)c1c(-c2ccc(F)cc2)oc2nc(CCC(F)(F)F)c(-c3cccc(C(=O)NC(C)(C#N)CF)c3)cc12` (centres unmarked) [Compound 11012], under setting [1], the EC50 was below 0.1 µM.
In the case of `CNC(=O)c1c(-c2ccc(F)cc2)oc2nc(CCC(F)(F)F)c(-c3ccc(OC)c(C(=O)NC(C)(C)C#N)c3)cc12` [Compound 12001], the EC50 runs as follows: under setting [1], below 0.1 µM; under setting [2], 0.0025 µM.
On to `CNC(=O)c1c(-c2ccc(F)cc2)oc2nc(CCC(F)(F)F)c(-c3ccc(OC)c(C(=O)NC4(C#N)CCC4)c3)cc12` [Compound 12002], for which, under setting [1], the EC50 was below 0.1 µM.
As to `CNC(=O)c1c(-c2ccc(F)cc2)oc2nc(CCC(F)(F)F)c(-c3ccc(OC)c(C(=O)NC4(C#N)CCCC4)c3)cc12` [Compound 12003], under setting [1], the EC50 was below 0.1 µM.
Take `CNC(=O)c1c(-c2ccc(F)cc2)oc2nc(CCC(F)(F)F)c(-c3ccc(OC)c(C(=O)NC(C)(C#N)C(C)C)c3)cc12` (centres unmarked) [Compound 12004]: the EC50 reads like this: under setting [1], below 0.1 µM; under setting [2], 0.0033 µM.
In the same order, the values of `CNC(=O)c1c(-c2ccc(F)cc2)oc2nc(CCC(F)(F)F)c(-c3ccc(F)c(C(=O)NC(C)(C#N)C(C)C)c3)cc12` (centres unmarked) [Compound 13002] are below 0.1 µM and 0.0024 µM.
`CNC(=O)c1c(-c2ccc(F)cc2)oc2nc(CCC(F)(F)F)c(-c3ccc(F)c(C(=O)NC(C)C#N)c3)cc12` (centres unmarked) [Compound 13003]: the EC50 under setting [1] was below 0.1 µM.
Take `CNC(=O)c1c(-c2ccc(F)cc2)oc2nc(CCC(F)(F)F)c(-c3ccc(F)c(C(=O)NC(C)C#N)c3)cc12` (centres unmarked) [Compound 13004]: for the setting “read-out: EC50 1b (class)”, the concentration for a half-maximal effect (EC50) was below 0.1 µM.
The same measure, in the same setting: for `CNC(=O)c1c(-c2ccc(F)cc2)oc2nc(CCC(F)(F)F)c(-c3ccc(F)c(C(=O)NC(C)C#N)c3)cc12` (centres unmarked) [Compound 13005] the value was below 0.1 µM.
On to `CNC(=O)c1c(-c2ccc(F)cc2)oc2nc(CCC(F)(F)F)c(-c3ccc(F)c(C(=O)NC(C)(C#N)C4CC4)c3)cc12` (centres unmarked) [Compound 13006], for which the EC50 was below 0.1 µM under setting [1] and 0.0036 µM under setting [2].
In the same order, the values of `CNC(=O)c1c(-c2ccc(F)cc2)oc2nc(CCC(F)(F)F)c(-c3cc(F)cc(C(=O)NC(C)(C)C#N)c3)cc12` [Compound 14001] are below 0.1 µM and 0.0022 µM.
For `CNC(=O)c1c(-c2ccc(F)cc2)oc2nc(CCC(F)(F)F)c(-c3cc(F)cc(C(=O)NC(C)(C#N)C4CC4)c3)cc12` (centres unmarked) [Compound 14002], under setting [1], the EC50 was below 0.1 µM.
The same measure, in the same setting: the figure for `CNC(=O)c1c(-c2ccc(F)cc2)oc2nc(CCC(F)(F)F)c(-c3cc(C(=O)NC(C)(C#N)C4CC4)ccc3F)cc12` (centres unmarked) [Compound 15001] is below 0.1 µM.
Turning to `CNC(=O)c1c(-c2ccc(F)cc2)oc2nc(CCC(F)(F)F)c(-c3cc(C(=O)NC(C)(C)C#N)ccc3F)cc12` [Compound 15002], the EC50 was below 0.1 µM under setting [1] and 0.0042 µM under setting [2].
For `CNC(=O)c1c(-c2ccc(F)cc2)oc2nc(CCC(F)(F)F)c(-c3cc(Cl)c(Cl)c(C(=O)NC(C)(C)C#N)c3)cc12` [Compound 16001], the EC50 under setting [1] is below 0.1 µM.
As to `CNC(=O)c1c(-c2ccc(F)cc2)oc2nc(CCC(F)(F)F)c(-c3cc(F)c(F)c(C(=O)NC(C)(C#N)C4CC4)c3)cc12` (centres unmarked) [Compound 17001], the concentration giving a half-maximal response (EC50) under setting [1] is below 0.1 µM and the EC50 under setting [2] came out at 0.0018 µM.
As for `[2H]C([2H])([2H])Oc1ncc(-c2cc3c(C(=O)NC)c(-c4ccc(F)cc4)oc3nc2CCC(F)(F)F)cc1C(=O)NC(C)(C#N)C1CC1` (centres unmarked) [Compound 18001], the EC50 is, setting by setting: under setting [1], below 0.1 µM; under setting [2], 0.0037 µM.
Turning to `CNC(=O)c1c(-c2ccc(F)cc2)oc2nc(NCC(F)(F)F)c(-c3cccc(C(=O)NC(C)(C)C#N)c3)cc12` [Compound 20001], the EC50 under setting [1] is below 0.1 µM.
In the case of `CNC(=O)c1c(-c2ccc(F)cc2)oc2nc(NCC(F)(F)F)c(-c3cccc(C(=O)NC(C)C#N)c3)cc12` (centres unmarked) [Compound 20002], the EC50 under setting [1] is below 0.1 µM.
For `CNC(=O)c1c(-c2ccc(F)cc2)oc2nc(NCC(F)(F)F)c(-c3cccc(C(=O)NC(C)C#N)c3)cc12` (centres unmarked) [Compound 20003], the EC50 (read-out: EC50 1b (class)) was below 0.1 µM.
On to `CNC(=O)c1c(-c2ccc(F)cc2)oc2nc(NCC(F)(F)F)c(-c3cccc(C(=O)NC(C)C#N)c3)cc12` (centres unmarked) [Compound 20004], for which, under “read-out: EC50 1b (class)”, the EC50 is below 0.1 µM.
For `CNC(=O)c1c(-c2ccc(F)cc2)oc2nc(NCC(F)(F)F)c(-c3cccc(C(=O)NC(C)(C#N)C4CC4)c3)cc12` (centres unmarked) [Compound 20006], the EC50 is, setting by setting: under setting [1], below 0.1 µM; under setting [2], 0.0031 µM.
For the compound `CNC(=O)c1c(-c2ccc(F)cc2)oc2nc(NCC(F)(F)F)c(-c3cccc(C(=O)NC(C)(C#N)C4CC4)c3)cc12` (centres unmarked) [Compound 20007], under “read-out: EC50 1b (class)”, the EC50 is below 0.1 µM.
Still for that read-out and setting: the figure for `CNC(=O)c1c(-c2ccc(F)cc2)oc2nc(NCC(F)(F)F)c(-c3cccc(C(=O)NC(C)(C#N)C4CC4)c3)cc12` (centres unmarked) [Compound 20008] is below 0.1 µM.
For the compound `CNC(=O)c1c(-c2ccc(F)cc2)oc2nc(NCC(F)(F)F)c(-c3ccc(OC)c(C(=O)NC(C)(C)C#N)c3)cc12` [Compound 21001], the EC50 under setting [1] is below 0.1 µM.
As for `CNC(=O)c1c(-c2ccc(F)cc2)oc2nc(NCC(F)(F)F)c(-c3ccc(F)c(C(=O)NC(C)C#N)c3)cc12` (centres unmarked) [Compound 22001], the EC50 by setting is: under setting [1], below 0.1 µM; under setting [2], 0.0055 µM.
In the case of `CNC(=O)c1c(-c2ccc(F)cc2)oc2nc(NCC(F)(F)F)c(-c3ccc(F)c(C(=O)NC(C)C#N)c3)cc12` (centres unmarked) [Compound 22002], the EC50 (read-out: EC50 1b (class)) is below 0.1 µM.
Still for that read-out and setting: the figure for `CNC(=O)c1c(-c2ccc(F)cc2)oc2nc(NCC(F)(F)F)c(-c3ccc(F)c(C(=O)NC(C)C#N)c3)cc12` (centres unmarked) [Compound 22003] is below 0.1 µM.
Consider `CNC(=O)c1c(-c2ccc(F)cc2)oc2nc(NCC(F)(F)F)c(-c3ccc(F)c(C(=O)NC(C)(C#N)C4CC4)c3)cc12` (centres unmarked) [Compound 22004], for which the EC50 by setting is: under setting [1], below 0.1 µM; under setting [2], 0.004 µM.
Take `CNC(=O)c1c(-c2ccc(F)cc2)oc2nc(NCC(F)(F)F)c(-c3ccc(F)c(C(=O)NC(C)(C#N)C4CC4)c3)cc12` (centres unmarked) [Compound 22005]: for the setting “read-out: EC50 1b (class)”, the EC50 is below 0.1 µM.
Consider `CNC(=O)c1c(-c2ccc(F)cc2)oc2nc(NCC(F)(F)F)c(-c3ccc(F)c(C(=O)NC(C)(C#N)C4CC4)c3)cc12` (centres unmarked) [Compound 22006], for which the EC50 (read-out: EC50 1b (class)) was below 0.1 µM.
Regarding `CNC(=O)c1c(-c2ccc(F)cc2)oc2nc(NCC(F)(F)F)c(-c3cc(F)cc(C(=O)NC(C)(C#N)C4CC4)c3)cc12` (centres unmarked) [Compound 23001], the EC50 under setting [1] was below 0.1 µM.
For the compound `CNC(=O)c1c(-c2ccc(F)cc2)oc2nc(NCC(F)(F)F)c(-c3cc(F)cc(C(=O)NC(C)(C)C#N)c3)cc12` [Compound 23002], the EC50 runs as follows: under setting [1], below 0.1 µM; under setting [2], 0.0072 µM.
In the same order, the values of `CNC(=O)c1c(-c2ccc(F)cc2)oc2nc(NCC(F)(F)F)c(-c3cc(Cl)c(NCC(F)(F)F)c(C(=O)NC(C)(C)C#N)c3)cc12` [Compound 24001] are below 0.1 µM and 0.0539 µM.

Broadly, the EC50 is the concentration at which the effect is half-maximal.
